This test deals with T1, CCR1 (Homo sapiens, UniProt P32246).
T1 sequence (P32246 1-355): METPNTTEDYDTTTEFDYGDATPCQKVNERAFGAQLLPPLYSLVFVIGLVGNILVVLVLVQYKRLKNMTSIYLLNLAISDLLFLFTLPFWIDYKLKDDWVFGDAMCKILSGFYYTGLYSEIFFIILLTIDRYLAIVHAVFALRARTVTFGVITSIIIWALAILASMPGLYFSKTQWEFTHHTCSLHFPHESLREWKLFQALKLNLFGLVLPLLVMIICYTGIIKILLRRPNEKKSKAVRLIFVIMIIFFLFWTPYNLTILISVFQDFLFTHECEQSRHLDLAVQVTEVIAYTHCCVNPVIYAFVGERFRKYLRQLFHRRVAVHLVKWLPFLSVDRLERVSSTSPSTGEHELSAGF
The experiment in a line: calcium flux in CCR1 transfected cells, Method B (Calcium 4 dye, HAMAMATSU FDSS6000). The class given is cell-based. Conditions: cells stably expressing recombinant CCR1 and G-alpha-16, MIP-1alpha at EC80. How it is done: Compounds are assessed for the ability to block the interaction of CCR1 and MIP-1α in a functional cellular assay measuring calcium flux in CCR1 transfected cells.
Method B: Non-adherent cells purchased from Chemicon Corporation (HTS005C), stably expressing recombinant CCR1 and G-alpha-16 are grown in RPMI 1640 medium (Mediatech 10-080-CM) supplemented with 10% FBS, 0.4 mg/mL Geneticin and penicillin/streptomycin. On the day of the assay, the cells are loaded with Calcium 4 dye (Molecular Devices R7448) with Probenecid (Invitrogen P346400) at 8E5 cells/mL for 1 hour at room temperature. After 1 hour, they are seeded in a 384-well tissue culture-treated plate at a density of 20,000 cells/well. Appropriately diluted test compound is added to the well to achieve a top concentration of 3,000 nM (diluted 4-fold with 10 doses total). The final concentration of DMSO is 1%. The buffer is HBSS (Invitrogen 14025) with 20 mM HEPES at pH 7.4. The cells incubate 30 minutes at 37 C and then 30 minutes at room temperature. The plates are transferred to the HAMAMATSU FDSS6000 where MIP-1alpha in 1% BSA is added at the EC80 final concentration. All plates must be read within 4 hours of the start of dye-loading. Wells+/−MIP-1alpha containing diluted DMSO instead of compound serve as the controls. Data are analyzed using Activity Base software.
For orientation: A change in cytosolic calcium serves as a functional read-out for many receptors and channels.
Consider `CCC[C@H](NC(=O)N1c2cnn(-c3ccc(F)cc3)c2CCC1C(F)(F)F)c1cc(S(C)(=O)=O)ccc1F` (single isomer, unassigned) [Example 77], for which the IC50 (commonly the concentration that gives 50% inhibition) was determined as 37 nM.
Regarding `CCC[C@H](NC(=O)N1c2cnn(-c3ccc(F)cc3)c2CCC1C)c1ccnc(S(C)(=O)=O)c1` (single isomer, unassigned) [Example 80], the half-inhibitory concentration (IC50) was 31 nM.
With `CCC[C@H](NC(=O)N1c2cnn(-c3ccc(F)cc3)c2CCC1C)c1ccnc(S(C)(=O)=O)c1` (single isomer, unassigned) [Example 81], the IC50 is 4 nM.
To `C[C@H](NC(=O)N1CCCc2c1cnn2-c1ccc(F)cc1)c1ccccc1` [Example 2] belongs 453 nM; to `O=C(NCCc1ccccc1)N1CCCc2c1cnn2-c1ccc(F)cc1` [Example 3], 126 nM.
For the compound `Cc1ccccc1CNC(=O)N1CCCc2c1cnn2-c1ccc(F)cc1` [Example 4], the 50% inhibitory concentration (IC50) came out at 283 nM.
As for `Cc1ccc(CNC(=O)N2CCCc3c2cnn3-c2ccc(F)cc2)cc1` [Example 5], the figure is 90 nM.
To `C[C@@H](NC(=O)N1CCCc2c1cnn2-c1ccc(F)cc1)c1ccccc1` [Example 6] belongs 125 nM; to `O=C(NCc1ccc(F)cc1)N1CCCc2c1cnn2-c1ccc(F)cc1` [Example 7], 183 nM.
As for `O=C(NCc1ccccc1F)N1CCCc2c1cnn2-c1ccc(F)cc1` [Example 8], the figure is 266 nM; as for `O=C(NCc1cccc(F)c1)N1CCCc2c1cnn2-c1ccc(F)cc1` [Example 9], 108 nM; as for `COc1ccc(CNC(=O)N2CCCc3c2cnn3-c2ccc(F)cc2)cc1` [Example 10], 266 nM.
Take `COc1ccccc1CNC(=O)N1CCCc2c1cnn2-c1ccc(F)cc1` [Example 11]: the IC50 was determined as 610 nM.
With `O=C(NCc1ccccc1Cl)N1CCCc2c1cnn2-c1ccc(F)cc1` [Example 12], the half-maximal inhibitory concentration (IC50) worked out at 138 nM.
As to `O=C(NCc1ccc(Cl)cc1)N1CCCc2c1cnn2-c1ccc(F)cc1` [Example 13], the IC50 worked out at 45 nM.
To `COc1ccc([C@H](C)NC(=O)N2CCCc3c2cnn3-c2ccc(F)cc2)cc1` [Example 14] belongs 102 nM.
To `O=C(Nc1cccc(C(F)(F)F)c1)N1CCCc2c1cnn2-c1ccc(F)cc1` [Example 15] belongs 115 nM; to `O=C(NCc1ccc(Cl)cc1Cl)N1CCCc2c1cnn2-c1ccc(F)cc1` [Example 16], 12 nM; to `O=C(NCc1ccc(Cl)c(Cl)c1)N1CCCc2c1cnn2-c1ccc(F)cc1` [Example 17], 1 nM.
To `Cc1cccc(CNC(=O)N2CCCc3c2cnn3-c2ccc(F)cc2)c1` [Example 18] belongs 131 nM; to `O=C(NCc1ccccc1)N1CCCc2c1cnn2-c1ccc(F)cc1` [Example 19], 395 nM; to `COc1cccc(CNC(=O)N2CCCc3c2cnn3-c2ccc(F)cc2)c1` [Example 20], 91 nM.
As for `O=C(NCc1cccc(C(F)(F)F)c1)N1CCCc2c1cnn2-c1ccc(F)cc1` [Example 21, 1-(4-Fluorophenyl)-N-[3-(trifluoromethyl)benzyl]-1,5,6,7-tetrahydro-4H-pyrazolo[4,3-b]pyridine-4-carboxamide], the IC50 worked out at 1 nM.
In the case of `O=C(NCc1ccc(S(=O)(=O)N2CCOCC2)cc1)N1CCCc2c1cnn2-c1ccc(F)cc1` [Example 27], the IC50 was 68 nM.
To `CNS(=O)(=O)c1cccc(CNC(=O)N2CCCc3c2cnn3-c2ccc(F)cc2)c1` [Example 29] belongs 16 nM; to `CS(=O)(=O)c1ccc(CNC(=O)N2CCCc3c2cnn3-c2ccc(F)cc2)cn1` [Example 30], 94 nM; to `CS(=O)(=O)c1cc(CNC(=O)N2CCCc3c2cnn3-c2ccc(F)cc2)ccn1` [Example 32], 34 nM.
As for `O=C(NCc1ccc(Br)cc1)N1CCCc2c1cnn2-c1ccc(F)cc1` [Example 37], the figure is 40 nM.
As for `CS(=O)(=O)c1ccc(CNC(=O)N2CCCc3c2cnn3-c2ccc(F)cc2)cc1O` [Example 43, 1-(4-Fluorophenyl)-1,5,6,7-tetrahydro-pyrazolo[4,3-b]pyridine-4-carboxylic acid 3-hydroxy-4-methanesulfonyl-benzylamide], the figure is 25 nM.
As for `C[C@H](NC(=O)N1CCCc2c1cnn2-c1ccc(F)cc1)c1cncc(S(C)(=O)=O)c1` [Example 44, 1-(4-Fluorophenyl)-1,5,6,7-tetrahydro-pyrazolo[4,3-b]pyridine-4-carboxylic acid [(S)-1-(5-methanesulfonyl-pyridin-3-yl)-ethyl]-amide], the IC50 stood at 18 nM.
On to `C[C@H](NC(=O)N1CCCc2c1cnn2-c1ccc(F)cc1)c1ccc(S(C)(=O)=O)nc1` [Example 52], for which the IC50 turned out to be 128 nM.
To `CC1CCc2c(cnn2-c2ccc(F)cc2)N1C(=O)NCc1ccnc(S(C)(=O)=O)c1` (stereo not shown) [Example 53] belongs 1280 nM; to `CC1CCc2c(cnn2-c2ccc(F)cc2)N1C(=O)N[C@@H](C)c1ccnc(S(C)(=O)=O)c1` (stereo partly shown) [Example 54], 684 nM; to `CC[C@H](NC(=O)N1c2cnn(-c3ccc(F)cc3)c2CCC1C(F)(F)F)c1ccnc(S(C)(=O)=O)c1` (stereo partly shown) [Example 58], 84 nM.
To `CS(=O)(=O)c1cc(C2(NC(=O)N3c4cnn(-c5ccc(F)cc5)c4CCC3C(F)(F)F)CC2)ccn1` (stereo not shown) [Example 64] belongs 1850 nM.
On to `CCC[C@H](NC(=O)N1CCCc2c1cnn2C1CCCCC1)c1ccnc(S(C)(=O)=O)c1` [Example 65], for which the IC50 stood at 330 nM.
As for `CCC[C@H](NC(=O)N1CCCc2c1cnn2C1CCCC1)c1ccnc(S(C)(=O)=O)c1` [Example 67], the figure is 194 nM.
To `CCC[C@H](NC(=O)N1c2cnn(-c3ccc(F)cc3)c2CCC1C(F)(F)F)c1ccc(Br)cc1F` (stereo partly shown) [Example 68] belongs 205 nM; to `CCC[C@H](NC(=O)N1c2cnn(-c3ccc(F)cc3)c2CCC1C(F)(F)F)c1ccc(S(C)(=O)=O)cc1F` (stereo partly shown) [Example 69], 11 nM.
Regarding `CCC[C@H](NC(=O)N1c2cnn(-c3ccc(F)cc3)c2CCC1C)c1ccnc(S(C)(=O)=O)c1` (stereo partly shown) [Example 70], the half-maximal inhibitory concentration (IC50) was determined as 5 nM.
Take `CCC[C@H](NC(=O)N1CCCc2c1cnn2-c1ccc(Cl)cc1)c1ccnc(S(C)(=O)=O)c1` [Example 71]: the IC50 worked out at 0.3 nM.
For `CCC[C@H](NC(=O)N1CCCCc2c1cnn2-c1ccc(F)cc1)c1ccnc(S(C)(=O)=O)c1` [Example 72], the 50% inhibitory concentration (IC50) stood at 344 nM.
For the compound `CCC[C@H](NC(=O)N1CCCCc2c1cnn2-c1ccc(F)cc1)c1cncc(S(C)(=O)=O)c1` [Example 75], the IC50 worked out at 640 nM.
To `CCC[C@H](NC(=O)N1CC(C(F)(F)F)Cc2c1cnn2-c1ccc(F)cc1)c1ccnc(S(C)(=O)=O)c1` (stereo partly shown) [Example 78] belongs 4 nM.
`CCC[C@H](NC(=O)N1CC(C(F)(F)F)Cc2c1cnn2-c1ccc(F)cc1)c1ccnc(S(C)(=O)=O)c1` (stereo partly shown) [Example 79]: the IC50 is 2 nM.
Regarding `CC[C@H](NC(=O)N1c2cnn(-c3ccc(F)cc3)c2CCC1C(F)(F)F)c1ccc(OC)c(S(C)(=O)=O)c1` (stereo partly shown) [Example 82], the IC50 is 23 nM.
As for `C[C@H](NC(=O)N1CC(C(F)(F)F)Cc2c1cnn2-c1ccc(F)cc1)c1ccnc(S(C)(=O)=O)c1` (stereo partly shown) [Example 83], the half-inhibitory concentration (IC50) was found to be 1260 nM.
As for `CC[C@H](NC(=O)N1c2cnn(-c3ccc(F)cc3)c2CCC1C(F)(F)F)c1ccc(S(C)(=O)=O)c(OC)c1` (stereo partly shown) [Example 84], the figure is 14 nM; as for `CC[C@H](NC(=O)N1c2cnn(-c3ccc(F)cc3)c2CCC1C(F)(F)F)c1ccc(S(C)(=O)=O)c(O)c1` (stereo partly shown) [Example 85], 23 nM.
Regarding `CCC[C@H](NC(=O)N1CCCc2c1cnn2-c1ccc(F)c(Cl)c1)c1ccnc(S(C)(=O)=O)c1` [Example 86], the IC50 was 2 nM.
To `CCC[C@H](NC(=O)N1CCc2c1cnn2-c1ccc(F)cc1)c1ccnc(S(C)(=O)=O)c1` [Example 87, 1-(4-Fluorophenyl)-5,6-dihydro-1H-pyrrolo[3,2-c]pyrazole-4-carboxylic acid [(S)-1-(2-methanesulfonyl-pyridin-4-yl)-butyl]-amide] belongs 10 nM; to `CCC[C@H](NC(=O)N1CCc2c1cnn2-c1ccc(F)cc1)c1ccnc(C)c1` [Example 88], 52 nM; to `CC[C@H](NC(=O)N1CCc2c1cnn2-c1ccc(F)cc1)c1cccc(S(C)(=O)=O)c1` [Example 89], 34 nM.
Regarding `CCC[C@H](NC(=O)N1c2cnn(-c3ccc(F)cc3)c2CCC1C(F)(F)F)c1cc(F)cc(S(C)(=O)=O)c1` (stereo partly shown) [Example 90], the IC50 is 6 nM.
For `CCC[C@H](NC(=O)N1c2cnn(-c3ccc(Cl)cc3)c2CCC1C)c1ccnc(S(C)(=O)=O)c1` (stereo partly shown) [Example 93], the IC50 turned out to be 18 nM.

For the origin of these results see patent US8546442B2, “Pyrazolopiperidine compounds as CCR1 receptor antagonists” (Boehringer Ingelheim International GmbH, priority 2010, dated 2013).
